In publication PMC3241856 (ACS chemical biology, 2011):

Biological target: mu opioid receptor (MOR) (Rattus norvegicus, UniProt P33535)
Test: Stimulation of [35S]GTPγS binding, C6-MOR membranes
Format: biochemical
Details: 10 μM peptide compared to 10 μM DAMGO

mu opioid receptor (MOR), sequence (P33535 whole entry): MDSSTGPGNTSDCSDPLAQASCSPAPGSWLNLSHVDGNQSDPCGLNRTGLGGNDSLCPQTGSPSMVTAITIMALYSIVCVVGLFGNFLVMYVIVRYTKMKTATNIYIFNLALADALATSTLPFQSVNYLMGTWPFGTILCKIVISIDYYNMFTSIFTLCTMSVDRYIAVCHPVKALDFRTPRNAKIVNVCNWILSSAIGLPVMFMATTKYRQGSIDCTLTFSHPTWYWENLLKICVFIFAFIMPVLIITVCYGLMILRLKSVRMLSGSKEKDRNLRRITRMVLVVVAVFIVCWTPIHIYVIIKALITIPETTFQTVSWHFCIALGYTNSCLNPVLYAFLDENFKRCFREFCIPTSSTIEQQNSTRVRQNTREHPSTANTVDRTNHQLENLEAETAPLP

Which “MOR % max. stimulation of [35S]GTPγS binding” value does the source give for `NC(=O)[C@H](Cc1ccccc1)NC(=O)[C@H](Cc1ccccc1)NC(=O)[C@@H]1CCCN1C(=O)[C@@H](N)Cc1ccc(O)cc1` [endomorphin-2] here?
Its value is 49 ± 7%.
